Measured values taken from US12281057B2 (VERTEX PHARMACEUTICALS INCORPORATED, priority 2017, dated 2025).

The compounds below were run against truncated form of human NaV 1.8 with full channel activity (Homo sapiens, UniProt Q9Y5Y9) (assay: E-VIPR Assay Method A for detecting and measuring Nav inhibition (HEK cells, membrane potential FRET dyes, electrical stimulation)). Conditions: HEK cells expressing human NaV 1.8, HS (human serum) in compound loading buffer, 11 point dose response, top dose 3 μM, Table 20A, read-out: Nav 1.8 MedChem Optical Assay EVIPR Assay Method A HS IC50.
truncated form of human NaV 1.8 with full channel activity, sequence (Q9Y5Y9 126-1722 limits assumed): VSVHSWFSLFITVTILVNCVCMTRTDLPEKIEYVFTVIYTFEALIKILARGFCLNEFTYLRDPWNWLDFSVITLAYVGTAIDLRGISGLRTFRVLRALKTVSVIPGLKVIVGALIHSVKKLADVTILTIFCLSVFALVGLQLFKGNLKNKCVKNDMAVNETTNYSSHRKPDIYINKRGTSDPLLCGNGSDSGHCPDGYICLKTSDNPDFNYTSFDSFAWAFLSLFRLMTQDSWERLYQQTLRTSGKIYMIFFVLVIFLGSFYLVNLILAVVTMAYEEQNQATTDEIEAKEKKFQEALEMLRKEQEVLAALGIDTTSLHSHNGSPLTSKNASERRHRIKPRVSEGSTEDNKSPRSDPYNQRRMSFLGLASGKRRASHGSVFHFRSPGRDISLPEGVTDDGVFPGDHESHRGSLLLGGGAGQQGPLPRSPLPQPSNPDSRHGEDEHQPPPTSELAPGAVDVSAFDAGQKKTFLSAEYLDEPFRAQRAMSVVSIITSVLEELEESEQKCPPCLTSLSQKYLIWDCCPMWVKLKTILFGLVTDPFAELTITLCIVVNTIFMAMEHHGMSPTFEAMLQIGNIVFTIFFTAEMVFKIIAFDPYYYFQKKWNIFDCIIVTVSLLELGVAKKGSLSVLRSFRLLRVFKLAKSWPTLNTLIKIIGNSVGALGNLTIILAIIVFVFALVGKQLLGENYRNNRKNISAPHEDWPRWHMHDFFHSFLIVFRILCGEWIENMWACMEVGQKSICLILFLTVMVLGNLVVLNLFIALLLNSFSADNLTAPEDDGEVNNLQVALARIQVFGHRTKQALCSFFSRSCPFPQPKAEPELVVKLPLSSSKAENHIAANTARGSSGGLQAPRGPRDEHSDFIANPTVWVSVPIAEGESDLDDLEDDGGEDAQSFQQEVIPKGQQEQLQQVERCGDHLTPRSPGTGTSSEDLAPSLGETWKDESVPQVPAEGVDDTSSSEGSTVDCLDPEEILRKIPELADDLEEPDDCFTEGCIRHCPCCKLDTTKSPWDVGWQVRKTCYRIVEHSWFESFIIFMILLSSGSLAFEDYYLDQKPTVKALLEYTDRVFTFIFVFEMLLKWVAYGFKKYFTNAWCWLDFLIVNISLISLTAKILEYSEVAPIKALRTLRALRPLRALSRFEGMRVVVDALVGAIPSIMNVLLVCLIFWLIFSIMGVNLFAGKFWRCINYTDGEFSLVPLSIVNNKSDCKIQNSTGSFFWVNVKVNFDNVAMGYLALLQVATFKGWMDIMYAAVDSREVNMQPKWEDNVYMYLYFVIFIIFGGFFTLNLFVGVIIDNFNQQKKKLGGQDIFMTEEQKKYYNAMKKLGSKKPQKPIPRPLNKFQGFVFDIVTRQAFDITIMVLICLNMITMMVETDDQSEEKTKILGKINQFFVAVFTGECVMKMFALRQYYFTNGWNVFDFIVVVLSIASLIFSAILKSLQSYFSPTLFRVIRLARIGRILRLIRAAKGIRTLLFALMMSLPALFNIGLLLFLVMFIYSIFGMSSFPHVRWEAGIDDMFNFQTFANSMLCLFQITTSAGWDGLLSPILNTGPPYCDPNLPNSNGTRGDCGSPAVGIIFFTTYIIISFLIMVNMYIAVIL
Format: cell-based
How it was run: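 Read-out: FRET membrane-potential dye ratio (460/580 nm) before and during E-VIPR field stimulation at 10 Hz for 10 s, expressed as % activity between DMSO and positive controls. Cells: HEK with truncated human NaV1.8; compound preincubated 30 min at room temp, final DMSO 0.625%.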

IC50 | SMILES
0.22 µM | Cc1cc(F)c(C(N)=O)cc1NC(=O)c1c(Oc2ccc(OC(F)(F)F)cc2)ccc(C(F)(F)F)c1F [Compound 124, N-(5-Carbamoyl-4-fluoro-2-methyl-phenyl)-2-fluoro-6-[4-(trifluoromethoxy)phenoxy]-3-(trifluoromethyl)benzamide]
0.135 µM | NC(=O)c1cc(F)cc(NC(=O)c2c(Oc3ccc(OC(F)(F)F)cc3)ccc(C(F)(F)F)c2F)c1 [Compound 101, N-(3-carbamoyl-5-fluoro-phenyl)-2-fluoro-6-[4-(trifluoromethoxy)phenoxy]-3-(trifluoromethyl)benzamide]
0.1 µM | COc1cc(OC(F)(F)F)ccc1Oc1ccc(C(F)(F)F)c(F)c1C(=O)Nc1cc(C(N)=O)c(F)cc1C [Compound 118]
0.005 µM | COc1cc(OC(F)(F)F)ccc1Oc1ccc(C(F)(F)F)c(F)c1C(=O)Nc1cc(C(N)=O)ncc1F [Compound 123, 5-Fluoro-4-[[2-fluoro-6-[2-methoxy-4-(trifluoromethoxy)phenoxy]-3-(trifluoromethyl)benzoyl]amino]pyridine-2-carboxamide]
0.044 µM | NC(=O)c1cccc(NC(=O)c2c(Oc3ccc(OC(F)(F)F)cc3F)ccc(C(F)(F)F)c2F)c1 [Compound 89, N-(3-carbamoylphenyl)-2-fluoro-6-[2-fluoro-4-(trifluoromethoxy)phenoxy]-3-(trifluoromethyl)benzamide]
0.085 µM | COc1cc(OC(F)(F)F)ccc1Oc1cc(C(F)(F)F)cc(F)c1C(=O)Nc1cc(C(N)=O)c(F)cc1C [Compound 139, 2-Fluoro-5-[[2-fluoro-6-[2-methoxy-4-(trifluoromethoxy)phenoxy]-4-(trifluoromethyl)benzoyl]amino]-4-methyl-benzamide]

The next lines start with the compound.

SMILES | IC50
COc1cc(OC(F)(F)F)ccc1Oc1ccc(F)c(Cl)c1C(=O)Nc1ccc(C(N)=O)nc1 [Compound 186, 5-[[2-Chloro-3-fluoro-6-[2-methoxy-4-(trifluoromethoxy)phenoxy]benzoyl]amino]pyridine-2-carboxamide] | 0.19 µM
COc1cc(OC(F)(F)F)ccc1Oc1cc(C(F)(F)F)c(F)cc1C(=O)Nc1ccnc(C(N)=O)c1 [Compound 75, 4-[[5-Fluoro-2-[2-methoxy-4-(trifluoromethoxy)phenoxy]-4-(trifluoromethyl)benzoyl]amino]pyridine-2-carboxamide] | 0.026 µM
COc1cc(OC(F)(F)F)ccc1Oc1ccc(F)c(Cl)c1C(=O)Nc1ccnc(C(N)=O)c1 [Compound 171, 4-[[2-Chloro-3-fluoro-6-[2-methoxy-4-(trifluoromethoxy)phenoxy]benzoyl]amino]pyridine-2-carboxamide] | 0.035 µM
NC(=O)c1cc(NC(=O)c2c(Oc3ccc(OC(F)(F)F)cc3)cc(C(F)(F)F)cc2C(F)(F)F)ccn1 [Compound 160, 4-[[2-[4-(Trifluoromethoxy)phenoxy]-4,6-bis(trifluoromethyl)benzoyl]amino]pyridine-2-carboxamide] | 0.41 µM
COc1cc(OC(F)(F)F)ccc1Oc1cc(Cl)cc(F)c1C(=O)Nc1ccc(C(N)=O)nc1 [Compound 185, 5-[[4-Chloro-2-fluoro-6-[2-methoxy-4-(trifluoromethoxy)phenoxy]benzoyl]amino]pyridine-2-carboxamide] | 0.066 µM
[2H]C([2H])([2H])Oc1cc(OC(F)(F)F)ccc1Oc1ccc(C(F)(F)F)c(F)c1C(=O)Nc1cc(C(N)=O)ncc1C [Compound 137, 4-[[2-Fluoro-6-[2-(trideuteriomethoxy)-4-(trifluoromethoxy)phenoxy]-3-(trifluoromethyl)benzoyl]amino]-5-methyl-pyridine-2-carboxamide] | 0.005 µM
[2H]C([2H])([2H])Oc1c(Oc2ccc(C(F)F)c(F)c2C(=O)Nc2ccc(C(N)=O)nc2)ccc(OC(F)(F)F)c1F [Compound 236, 5-[[3-(Difluoromethyl)-2-fluoro-6-[3-fluoro-2-(trideuteriomethoxy)-4-(trifluoromethoxy)phenoxy]benzoyl]amino]pyridine-2-carboxamide] | 0.045 µM
